According to patent US9296757B2, “Substituted benzothienopyrimidines” (BAYER PHARMA AKTIENGESELLSCHAFT, priority 2012, dated 2016):
pIC50: −log10 of the molar value.

biological target: human full-length MKNK1 (Homo sapiens (Human), UniProt Q9BUB5, T344D); assay: MKNK1 kinase high ATP assay (TR-FRET); type: biochemical; settings: high ATP (2 mM final), 15 min preincubation with enzyme
Description: MKNK1-inhibitory activity at high ATP of compounds of the present invention after their preincubation with MKNK1 was quantified employing the TR-FRET-based MKNK1 high ATP assay as described in the following paragraphs.
A recombinant fusion protein of Glutathione-S-Transferase (GST, N-terminally) and human full-length MKNK1 (amino acids 1-424 and T344D of accession number BAA 19885.1), expressed in insect cells using baculovirus expression system and purified via glutathione sepharose affinity chromatography, was purchased from Carna Biosciences (product no 02-145) and used as enzyme. As substrate for the kinase reaction the biotinylated peptide biotin-Ahx-IKKRKLTRRKSLKG (C-terminus in amide form) was used, which can be purchased e.g. from the company Biosyntan (Berlin-Buch, Germany).
For the assay 50 nL of a 100 fold concentrated solution of the test compound in DMSO was pipetted into a black low volume 384 well microtiter plate (Greiner Bio-One, Frickenhausen, Germany), 2 μL of a solution of MKNK1 in aqueous assay buffer [50 mM HEPES pH 7.5, 5 mM MgCl2, 1.0 mM dithiothreitol, 0.005% (v/v) Nonidet-P40 (Sigma)] was added and the mixture was incubated for 15 min at 22° C. to allow pre-binding of the test compounds to the enzyme before the start of the kinase reaction. Then the kinase reaction was started by the addition of 3 μL of a solution of adenosine-tri-phosphate (ATP, 3.3 mM=>final conc. in the 5 μL assay volume is 2 mM) and substrate (0.1 μM=>final conc. in the 5 μL assay volume is 0.06 μM) in assay buffer and the resulting mixture was incubated for a reaction time of 30 min at 22° C. The concentration of MKNK1 was adjusted depending of the activity of the enzyme lot and was chosen appropriate to have the assay in the linear range, typical concentrations were in the range of 0.003 μg/mL. The reaction was stopped by the addition of 5 μL of a solution of TR-FRET detection reagents (5 nM streptavidine-XL665 [Cisbio Bioassays, Codolet, France] and 1 nM anti-ribosomal protein S6 (pSer236)-antibody from Invitrogen [#44921G] and 1 nM LANCE EU-W1024 labeled ProteinG [Perkin-Elmer, product no. AD0071]) in an aqueous EDTA-solution (100 mM EDTA, 0.1% (w/v) bovine serum albumin in 50 mM HEPES pH 7.5).
The resulting mixture was incubated for 1 h at 22° C. to allow the formation of complex between the phosphorylated biotinylated peptide and the detection reagents. Subsequently the amount of phosphorylated substrate was evaluated by measurement of the resonance energy transfer from the Eu-chelate to the streptavidine-XL. Therefore, the fluorescence emissions at 620 nm and 665 nm after excitation at 350 nm were measured in a TR-FRET reader, e.g. a Rubystar (BMG Labtechnologies, Offenburg, Germany) or a Viewlux (Perkin-Elmer). The ratio of the emissions at 665 nm and at […] was taken as the measure for the amount of phosphorylated substrate. The data were normalised (enzyme reaction without inhibitor=0% inhibition, all other assay components but no enzyme=100% inhibition).

human full-length MKNK1, sequence (Q9BUB5 other isoform, or with tags, fused parts or gaps T344D): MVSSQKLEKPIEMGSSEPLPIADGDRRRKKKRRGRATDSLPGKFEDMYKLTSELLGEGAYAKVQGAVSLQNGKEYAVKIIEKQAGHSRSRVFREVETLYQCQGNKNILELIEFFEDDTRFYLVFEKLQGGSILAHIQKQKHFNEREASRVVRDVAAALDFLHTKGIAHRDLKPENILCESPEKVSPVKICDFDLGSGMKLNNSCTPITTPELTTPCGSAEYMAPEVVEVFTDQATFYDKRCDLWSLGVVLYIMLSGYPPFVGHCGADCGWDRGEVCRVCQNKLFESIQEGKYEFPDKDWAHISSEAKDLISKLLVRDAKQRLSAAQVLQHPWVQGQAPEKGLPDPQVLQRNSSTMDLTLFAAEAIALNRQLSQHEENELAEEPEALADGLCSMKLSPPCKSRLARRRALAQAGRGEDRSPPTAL

pIC50	SMILES
7.46	O=C(C1CCc2c(sc3ncnc(Nc4ccc5[nH]c(=O)sc5c4)c23)C1)N1CCCC1CO (racemic) [Example 46, 6-{[(7RS)-7-{[(2RS)-2-(hydroxymethyl)pyrrolidin-1-yl]carbonyl}-5,6,7,8-tetrahydro[1]benzothieno[2,3-d]pyrimidin-4-yl]amino}-1,3-benzothiazol-2(3H)-one]
7.33	CC(=O)N1CCN(C(=O)C2CCc3c(sc4ncnc(Nc5ccc6[nH]c(=O)sc6c5)c34)C2)CC1 (racemic) [Example 47, (RS)-6-({7-[(4-acetylpiperazin-1-yl)carbonyl]-5,6,7,8-tetrahydro[1]benzothieno[2,3-d]pyrimidin-4-yl}amino)-1,3-benzothiazol-2(3H)-one]
7.19	CN(CCC#N)C(=O)C1CCc2c(sc3ncnc(Nc4ccc5[nH]c(=O)sc5c4)c23)C1 (racemic) [Example 48, (RS)-N-(2-cyanoethyl)-N-methyl-4-[(2-oxo-2,3-dihydro-1,3-benzothiazol-6-yl)amino]-5,6,7,8-tetrahydro[1]benzothieno[2,3-d]pyrimidine-7-carboxamide]
7.35	CN(CC#N)C(=O)C1CCc2c(sc3ncnc(Nc4ccc5[nH]c(=O)sc5c4)c23)C1 (racemic) [Example 49, (RS)-N-(cyanomethyl)-N-methyl-4-[(2-oxo-2,3-dihydro-1,3-benzothiazol-6-yl)amino]-5,6,7,8-tetrahydro[1]benzothieno[2,3-d]pyrimidine-7-carboxamide]
7.37	CC1CCN(C(=O)C2CCc3c(sc4ncnc(Nc5ccc6[nH]c(=O)sc6c5)c34)C2)CC1 (racemic) [Example 50, (RS)-6-({7-[(4-methylpiperidin-1-yl)carbonyl]-5,6,7,8-tetrahydro[1]benzothieno[2,3-d]pyrimidin-4-yl}amino)-1,3-benzothiazol-2(3H)-one]
7.12	O=C(C1CCc2c(sc3ncnc(Nc4ccc5[nH]c(=O)sc5c4)c23)C1)N1CCC(O)C1 (racemic) [Example 51, 6-{[(7RS)-7-{[(3RS)-3-hydroxypyrrolidin-1-yl]carbonyl}-5,6,7,8-tetrahydro[1]benzothieno[2,3-d]pyrimidin-4-yl]amino}-1,3-benzothiazol-2(3H)-one]
7.52	COCCN(CCOC)C(=O)C1CCc2c(sc3ncnc(Nc4ccc5[nH]c(=O)sc5c4)c23)C1 (racemic) [Example 52, (RS)-N,N-bis(2-methoxyethyl)-4-[(2-oxo-2,3-dihydro-1,3-benzothiazol-6-yl)amino]-5,6,7,8-tetrahydro[1]benzothieno[2,3-d]pyrimidine-7-carboxamide]
7.28	O=C(C1CCc2c(sc3ncnc(Nc4ccc5[nH]c(=O)sc5c4)c23)C1)N1CCCC(O)C1 (racemic) [Example 53, 6-{[(7RS)-7-{[(3RS)-3-hydroxypiperidin-1-yl]carbonyl}-5,6,7,8-tetrahydro[1]benzothieno[2,3-d]pyrimidin-4-yl]amino}-1,3-benzothiazol-2(3H)-one]
7.55	CC(C)N(CCO)C(=O)C1CCc2c(sc3ncnc(Nc4ccc5[nH]c(=O)sc5c4)c23)C1 (racemic) [Example 54, (RS)-N-(2-hydroxyethyl)-N-isopropyl-4-[(2-oxo-2,3-dihydro-1,3-benzothiazol-6-yl)amino]-5,6,7,8-tetrahydro[1]benzothieno[2,3-d]pyrimidine-7-carboxamide]
7.14	O=C(C1CCc2c(sc3ncnc(Nc4ccc5[nH]c(=O)sc5c4)c23)C1)N1Cc2ccccc2C1 (racemic) [Example 55, (RS)-6-{[7-(1,3-dihydro-2H-isoindol-2-ylcarbonyl)-5,6,7,8-tetrahydro[1]benzothieno[2,3-d]pyrimidin-4-yl]amino}-1,3-benzothiazol-2(3H)-one]
7.57	CN(CC1CCCO1)C(=O)C1CCc2c(sc3ncnc(Nc4ccc5[nH]c(=O)sc5c4)c23)C1 (racemic) [Example 56, (7RS)-N-methyl-4-[(2-oxo-2,3-dihydro-1,3-benzothiazol-6-yl)amino]-N-[(2RS)-tetrahydrofuran-2-ylmethyl]-5,6,7,8-tetrahydro[1]benzothieno[2,3-d]pyrimidine-7-carboxamide]
7.41	O=C(C1CCc2c(sc3ncnc(Nc4ccc5[nH]c(=O)sc5c4)c23)C1)N1CCN(CCCO)CC1 (racemic) [Example 57, (RS)-6-[(7-{[4-(3-hydroxypropyl)piperazin-1-yl]carbonyl}-5,6,7,8-tetrahydro[1]benzothieno[2,3-d]pyrimidin-4-yl)amino]-1,3-benzothiazol-2(3H)-one]
7.20	CC(C)CN(C)C(=O)C1CCc2c(sc3ncnc(Nc4ccc5[nH]c(=O)sc5c4)c23)C1 (racemic) [Example 58, (RS)-N-isobutyl-N-methyl-4-[(2-oxo-2,3-dihydro-1,3-benzothiazol-6-yl)amino]-5,6,7,8-tetrahydro[1]benzothieno[2,3-d]pyrimidine-7-carboxamide]
7.40	CCN(C)C(=O)C1CCc2c(sc3ncnc(Nc4ccc5[nH]c(=O)sc5c4)c23)C1 (racemic) [Example 59, (RS)-N-ethyl-N-methyl-4-[(2-oxo-2,3-dihydro-1,3-benzothiazol-6-yl)amino]-5,6,7,8-tetrahydro[1]benzothieno[2,3-d]pyrimidine-7-carboxamide]
7.44	CCN1CCN(C(=O)C2CCc3c(sc4ncnc(Nc5ccc6[nH]c(=O)sc6c5)c34)C2)CC1 (racemic) [Example 60, (RS)-6-({7-[(4-ethylpiperazin-1-yl)carbonyl]-5,6,7,8-tetrahydro[1]benzothieno[2,3-d]pyrimidin-4-yl}amino)-1,3-benzothiazol-2(3H)-one]
7.49	CC(=O)N(C)C1CCN(C(=O)C2CCc3c(sc4ncnc(Nc5ccc6[nH]c(=O)sc6c5)c34)C2)C1 (racemic) [Example 61, N-methyl-N-[(3RS)-1-({(7RS)-4-[(2-oxo-2,3-dihydro-1,3-benzothiazol-6-yl)amino]-5,6,7,8-tetrahydro[1]benzothieno[2,3-d]pyrimidin-7-yl}carbonyl)pyrrolidin-3-yl]acetamide]
7.40	CN(C)C(=O)CN(C)C(=O)C1CCc2c(sc3ncnc(Nc4ccc5[nH]c(=O)sc5c4)c23)C1 (racemic) [Example 62, (RS)-N-[2-(dimethylamino)-2-oxoethyl]-N-methyl-4-[(2-oxo-2,3-dihydro-1,3-benzothiazol-6-yl)amino]-5,6,7,8-tetrahydro[1]benzothieno[2,3-d]pyrimidine-7-carboxamide]
7.42	CCN(CCC#N)C(=O)C1CCc2c(sc3ncnc(Nc4ccc5[nH]c(=O)sc5c4)c23)C1 (racemic) [Example 63, (RS)-N-(2-cyanoethyl)-N-ethyl-4-[(2-oxo-2,3-dihydro-1,3-benzothiazol-6-yl)amino]-5,6,7,8-tetrahydro[1]benzothieno[2,3-d]pyrimidine-7-carboxamide]
7.57	O=C(C1CCc2c(sc3ncnc(Nc4ccc5[nH]c(=O)sc5c4)c23)C1)N1CCN2CCCCC2C1 (racemic) [Example 64, 6-({(7RS)-7-[(9aRS)-octahydro-2H-pyrido[1,2-a]pyrazin-2-ylcarbonyl]-5,6,7,8-tetrahydro[1]benzothieno[2,3-d]pyrimidin-4-yl}amino)-1,3-benzothiazol-2(3H)-one]
7.09	O=C(C1CCc2c(sc3ncnc(Nc4ccc5[nH]c(=O)sc5c4)c23)C1)N1CCCC(F)C1 (racemic) [Example 65, 6-{[(7RS)-7-{[(3RS)-3-fluoropiperidin-1-yl]carbonyl}-5,6,7,8-tetrahydro[1]benzothieno[2,3-d]pyrimidin-4-yl]amino}-1,3-benzothiazol-2(3H)-one]
7.47	CN(CCCCO)C(=O)C1CCc2c(sc3ncnc(Nc4ccc5[nH]c(=O)sc5c4)c23)C1 (racemic) [Example 66, (RS)-N-(4-hydroxybutyl)-N-methyl-4-[(2-oxo-2,3-dihydro-1,3-benzothiazol-6-yl)amino]-5,6,7,8-tetrahydro[1]benzothieno[2,3-d]pyrimidine-7-carboxamide]
7.21	CN(CCCO)C(=O)C1CCc2c(sc3ncnc(Nc4ccc5[nH]c(=O)sc5c4)c23)C1 (racemic) [Example 67, (RS)-N-(3-hydroxypropyl)-N-methyl-4-[(2-oxo-2,3-dihydro-1,3-benzothiazol-6-yl)amino]-5,6,7,8-tetrahydro[1]benzothieno[2,3-d]pyrimidine-7-carboxamide]
